Assay results as given in US20230348400A1, “ORGANIC COMPOUND, LIGHT-EMITTING DEVICE, AND LIGHT-EMITTING APPARATUS” (SEMICONDUCTOR ENERGY LABORATORY CO., LTD., priority 2022, published 2023).
In brackets after ≈: the same amount, converted by molar mass.

Assay: Solubility test in water (stepwise addition of water, ultrasonic waves, visual observation of precipitate)
Format: physicochemical
Details: for solubility at 1 min: from solid; for solubility in water as a fraction of the solubility of 2,7hpp2SF in water: one atmosphere, RT, relative to comparative 2,7hpp2SF
Method: In this example, the solubility of the organic compounds that can be used in the display apparatus of one embodiment of the present invention is described. Note that the solubility test was conducted at a pressure of one atmosphere at room temperature (RT).
(§1) The mixture was irradiated with ultrasonic waves for 1 minute. The mixture was visually observed, and a white powdered precipitate was observed. This means part of 2′,7′tBu-2,7hpp2SF remained undissolved. […] This process was repeated until the white powdered precipitate was not visually observed any more. Thus, the solubility was examined.
The mixture was irradiated with ultrasonic waves for 1 minute. Whether part of the mixture remained undissolved was visually confirmed, and a white powdered precipitate was observed. […] This process was repeated.
as §1, with “was” for “was visually”, “2,7hpp2SF” for “2′,7′tBu-2,7hpp2SF”

solubility at 1 min [µg/mL] | solubility in water as a fraction of the solubility of 2,7hpp2SF in water | weight that is dissolved in 1.0 mL of water (pressure of one atmosphere, room temperature (RT)) | Structure (SMILES)
330 to 390 (≈ 559 to 660 µM) | – | – | c1ccc2c(c1)-c1ccccc1C21c2cc(N3CCCN4CCCN=C43)ccc2-c2ccc(N3CCCN4CCCN=C43)cc21 [2,7hpp2SF, 1,1′-(9,9′-spirobi[9H-fluorene]-2,7-diyl)bis(1,3,4,6,7,8-hexahydro-2H-pyrimido[1,2-a]pyrimidine), reference compound]
58 to 61 | less than or equal to ⅕ | – | CC(C)(C)c1ccc2c(c1)C1(c3cc(N4CCCN5CCCN=C54)ccc3-c3ccc(N4CCCN5CCCN=C54)cc31)c1cc(C(C)(C)C)ccc1-2 [Structural Formula (100), 1,1′-(2′,7′-di-tert-butyl-9,9′-spirobi[9H-fluorene]-2,7-diyl)bis(1,3,4,6,7,8-hexahydro-2H-pyrimido[1,2-a]pyrimidine)]
< 2.3 | less than or equal to 1/140 | less than 0.0023 mg | CC(C)(C)c1ccc2c(c1)C1(c3ccccc3-c3ccc(N4CCCN5CCCN=C54)cc31)c1cc(C(C)(C)C)ccc1-2 [Structural Formula (101), 1-(2′,7′-di-tert-butyl-9,9′-spirobi[9H-fluoren]-2-yl)-1,3,4,6,7,8-hexahydro-2H-pyrimido[1,2-a]pyrimidine]
